These are literature values, as cited in patent publication US20240335441A1, “METHOD OF TREATING POSTTRAUMATIC STRESS DISORDER” (Jazz Pharmaceuticals Ireland Limited, priority 2021, published 2024).

One series relates to healthy volunteers. The settings on record: placebo-controlled.
In series [1] the test system is men with cannabis use disorder (CUD). The settings on record: compared to placebo.

`O=C(Nc1cccnn1)N1CCC(=Cc2cccc(Oc3ccc(C(F)(F)F)cn3)c2)CC1` [Compound A, N-Pyridazin-3-yl-4-{3-[5-(trifluoromethyl)-2-pyridyloxy]benzylidene}piperidine-1-carboxamide]: in the series with healthy volunteers, the “negative affect in response to an aversive stimulus” value is “blunted” and the “recall of fear extinction memory” value was “enhanced”. For the same molecule, in series [1], the self-reported overall sleep result is on record as “improved” and the “slow wave sleep as measured by polysomnography” value is “significantly increased”.
